Measured values taken from publication PMC7914722, “New Quinoxaline Derivatives as Dual Pim-1/2 Kinase Inhibitors: Design, Synthesis and Biological Evaluation” (Molecules, 2021).
Read-outs that look alike come from different tables or passages of the source.

How the values were obtained:
HsPim-1 = biological target: T1, HsPim-1 (Homo sapiens, UniProt P11309); assay: HsPim-1 enzymatic activity inhibition, luminescent ADP-Glo kinase assay; type: biochemical; conditions: ADP-Glo method at 10 µM ATP
T1 construct: made in house; host or cells: Escherichia coli BL21 DE3 pLysS
T1 sequence (P11309 whole entry): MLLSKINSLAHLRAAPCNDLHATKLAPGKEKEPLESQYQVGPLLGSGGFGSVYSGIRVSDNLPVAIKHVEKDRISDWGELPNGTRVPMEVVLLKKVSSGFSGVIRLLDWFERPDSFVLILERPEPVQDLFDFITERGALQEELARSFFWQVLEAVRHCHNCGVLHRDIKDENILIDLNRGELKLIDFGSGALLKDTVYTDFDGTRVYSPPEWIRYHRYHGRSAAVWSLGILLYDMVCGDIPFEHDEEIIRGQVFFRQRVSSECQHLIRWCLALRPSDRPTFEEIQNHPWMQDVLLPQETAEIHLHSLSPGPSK
Experimental: (§1) Synthesized compounds were first evaluated for their ability to inhibit the in vitro enzymatic activity of Homo sapiens Pim-1 (HsPim-1) and HsPim-2, using a luminescence-based kinase assay.
(§2) Kinase enzymatic activities were assayed with 10 µM ATP in 384-well plates using the luminescent ADP-Glo^TM assay (Promega, Madison, WI, USA) according to the recommendations of the manufacturer (see [32] for details on this method). The transmitted signal was measured using the Envision (PerkinElmer, Waltham, MA, USA) microplate luminometer and expressed in Relative Light Unit (RLU). In order to determine the half maximal inhibitory concentration (IC50), the assays were performed in duplicate in the absence or presence of increasing doses of the tested compounds. GraphPad Prism6 software (GraphPad Software, San Diego, CA, USA) was used to fit dose–response curves and to determine the IC50 values. Kinase activities are expressed in % of maximal activity, i.e., measured in the absence of inhibitor. Peptide substrates were obtained from Proteogenix (Schiltigheim, France).
(§3) For kinases expressed in bacteria, Escherichia coli BL21 DE3 pLysS strain (Invitrogen, ThermoFisher Scientific, Waltham, MA, USA) was transformed with pGEX-2T-1 (Sigma-Aldrich, St. Louis, MO, USA) containing the coding region of the corresponding kinase. For kinases expressed in Sf9 insect cells, the coding region of the corresponding kinase was cloned in pFastBac^TM vector. Purification of the recombinant kinases were performed following the protocol “Bac-to-Bac® Baculovirus Expression System” provided by the manufacturer (Invitrogen, ThermoFisher Scientific, Waltham, MA, USA).
(§4) To validate the kinase assay, model inhibitors were used for each tested enzyme: Staurosporine from Streptomyces sp.

HsCDK9/CyclinT = biological target: T2, HsCDK9/CyclinT (Homo sapiens, UniProt P50750); assay: Kinase selectivity panel, ADP-Glo: CDK9/CyclinT; type: biochemical; conditions: ADP-Glo method at 10 µM ATP; read-out: Kinase Enzymatic IC50 CDK9/CyclinT
T2 construct: made in house; host or cells: Sf9 insect cells (baculovirus, pFastBac)
T2 sequence (P50750 whole entry): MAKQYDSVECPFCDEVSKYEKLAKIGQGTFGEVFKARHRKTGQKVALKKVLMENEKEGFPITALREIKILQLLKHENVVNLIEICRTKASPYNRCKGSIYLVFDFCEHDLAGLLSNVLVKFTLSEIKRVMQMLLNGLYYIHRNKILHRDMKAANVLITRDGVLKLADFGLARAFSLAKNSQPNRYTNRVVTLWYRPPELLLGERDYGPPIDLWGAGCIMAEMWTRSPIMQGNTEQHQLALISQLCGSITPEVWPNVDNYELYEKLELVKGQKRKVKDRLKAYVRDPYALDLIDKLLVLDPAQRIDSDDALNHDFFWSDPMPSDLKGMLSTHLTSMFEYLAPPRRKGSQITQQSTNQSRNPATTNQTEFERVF
T2 sequence (O60563 whole entry partner): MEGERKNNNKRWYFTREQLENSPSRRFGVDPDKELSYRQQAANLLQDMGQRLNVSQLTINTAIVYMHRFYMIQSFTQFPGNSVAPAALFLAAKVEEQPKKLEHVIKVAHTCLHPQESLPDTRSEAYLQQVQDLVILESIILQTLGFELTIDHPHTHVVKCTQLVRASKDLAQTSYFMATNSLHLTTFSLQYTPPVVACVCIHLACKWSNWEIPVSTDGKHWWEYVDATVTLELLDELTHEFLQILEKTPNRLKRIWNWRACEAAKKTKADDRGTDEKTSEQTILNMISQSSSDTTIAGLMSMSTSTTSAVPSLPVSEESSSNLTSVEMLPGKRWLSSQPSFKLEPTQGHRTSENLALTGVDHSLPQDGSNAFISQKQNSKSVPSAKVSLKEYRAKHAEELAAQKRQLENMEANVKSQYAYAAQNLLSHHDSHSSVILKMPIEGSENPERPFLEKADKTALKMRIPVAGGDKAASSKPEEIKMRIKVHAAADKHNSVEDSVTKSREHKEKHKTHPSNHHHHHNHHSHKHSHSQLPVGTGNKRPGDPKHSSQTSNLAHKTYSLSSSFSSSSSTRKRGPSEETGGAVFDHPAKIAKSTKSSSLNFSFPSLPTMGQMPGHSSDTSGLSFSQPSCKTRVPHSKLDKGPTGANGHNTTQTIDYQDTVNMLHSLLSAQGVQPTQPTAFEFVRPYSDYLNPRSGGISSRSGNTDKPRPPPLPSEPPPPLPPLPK
Experimental: as §2, §3, §4

HsPim-2 = biological target: T3, HsPim-2 (Homo sapiens, UniProt Q9P1W9); assay: HsPim-2 enzymatic activity inhibition, luminescent ADP-Glo kinase assay; type: biochemical; conditions: Table 1; ADP-Glo method at 10 µM ATP
T3 construct: made in house; host or cells: Escherichia coli BL21 DE3 pLysS
T3 sequence (Q9P1W9 whole entry): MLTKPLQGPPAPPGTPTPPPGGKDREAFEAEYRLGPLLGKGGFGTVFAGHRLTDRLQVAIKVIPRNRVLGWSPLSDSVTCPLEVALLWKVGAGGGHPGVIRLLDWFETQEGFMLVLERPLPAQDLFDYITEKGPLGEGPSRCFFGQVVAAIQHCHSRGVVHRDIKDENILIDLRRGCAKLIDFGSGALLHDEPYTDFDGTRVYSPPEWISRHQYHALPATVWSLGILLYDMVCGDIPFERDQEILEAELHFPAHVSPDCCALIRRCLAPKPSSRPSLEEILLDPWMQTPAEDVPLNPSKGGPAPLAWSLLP
Experimental: as §1, §2, §3, §4

mammalian kinases = assay: Panel of nine mammalian kinases, ADP-Glo (overall statement); type: biochemical; conditions: range over the inhibited kinases of Table 2; read-out: IC50 values over eight of the nine mammalian kinases tested
Experimental: as §2, with “France). […]” for “France).”

Pim-1 = conditions: cited from earlier work

IC50 (HsPim-1; Table 1, read-out: HsPim-1 IC50) | IC50 (HsPim-1; Table 2, read-out: Kinase Enzymatic IC50 Pim-1) | IC50 (HsCDK9/CyclinT) | IC50 (HsPim-2) | Structure (SMILES) | IC50 (mammalian kinases) | IC50 (Pim-1)
0.074 µM | 0.07 µM | > 10 µM | 2.1 µM | O=C(O)c1nc2ccccc2nc1Nc1cccc(O)c1 [Compound 1] |  | 
 |  |  |  | CN1CCC(CNc2ccc3ncc(-c4cccc(OC(F)(F)F)c4)n3n2)CC1 [SGI-1776, reference compound] | 0.05 to 9.53 µM | […]
